The source of these data is patent publication US20210137960A1, “COMPOSITIONS AND METHODS FOR INHIBITION OF NUCLEAR-PENETRATING ANTIBODIES” (Yale University, priority 2018, published 2021).

In test [1] the test system is DLD1 cells. The experiment in a line: SLE sera nuclear import with nuclear import inhibitors, anti-human IgG immunostain. The format is cell-based. The conditions noted are these: for effect on nuclear uptake of ANAs in SLE-19: SLE-19 serum. As for the experimental part: DLD1 cells were pre-treated with either control media, or media containing nuclear import inhibitors for four hours. Subsequent co-treatment with inhibitor and patient SLE serum (diluted 1:50) was performed for one hour at 37° C. Following treatment, cells were fixed, blocked and probed with an alkaline-phosphatase anti-human IgG […] antibody overnight (Fisher Scientific). Cell monolayers were washed, and color developed using NBT/BCIP reagent (Fisher Scientific) for the same duration across all experiments. Following chromogen color development, all monolayers were washed, and brightfield images acquired immediately on an Evos F microscope.

A further test has as its system DLD1 cancer cells. Put plainly: Uptake of rhodamine-labeled variant 13 in live cells, light and fluorescence microscopy, DLD1. The conditions noted are these: 50 μM importazole. The format is cell-based. The method, then: Live DLD1 cancer cells were treated with control or rhodamine-labeled variant 13 (Rh-variant 13)+/−50 μM importazole and were then visualized under light and fluorescence microscopy.

The test system of the next test is A549 lung cancer cells. Put plainly: Protein L immunodetection of variant 13 nuclear penetration with importin pathway inhibitors, A549. The conditions noted are these: 10 μM variant 13 co-incubated with 0, 10, 25, or 50 μM inhibitor. The format is cell-based. As for the experimental part:
(§1) For all experiments, cells were cultivated overnight to allow for attachment, followed by pretreatment with either control medium (absence of inhibitor), or medium containing inhibitor for durations previously-reported in the literature (see Table 5, below).
(§2) For endocytosis inhibition experiments, cells were cultivated in serum-free medium containing 1% v/v BSA to deplete endogenous serum levels. Following preincubation with inhibitors, cells were treated with either control medium or 10 μM variant 13, and the same dose of small molecule inhibitor for a further 30 minutes. For all experiments, cells were washed thrice, followed by immediate fixation with pre-chilled ice-cold ethanol. Subsequently, treated cells were probed using a protein L immunodetection approach to probe variant 13 nuclear uptake (Rattray et al., Biochem Biophys Res Commun 496, 858-864 (2018)). All monolayers were immediately imaged following color development on an Evos Fl microscope.
(§3) DLD-1 and A549 cells were treated with 10 μM variant 13 co-incubated with 0, 10, 25, or 50 μM concentrations of ivermectin. Relative intensity of protein L nuclear staining as compared to amount of stain in cells treated without ivermectin was also quantified by ImageJ.
(§4) DLD-1 cells and A549 cells were treated with 10 μM variant 13 co-incubated with 0, 10, 25, or 50 μM concentrations of importazole and then immunostained for protein L.
(§5) DLD-1 cells and A549 cells were treated with 10 μM variant 13 co-incubated with 0, 10, 25, or 50 μM concentrations of mifepristone and then immunostained for protein L.

The test system of another test is DLD1 colon cancer cells. The experiment in a line: Protein L immunodetection of variant 13 nuclear penetration with importin pathway inhibitors, DLD1. The conditions noted are these: 10 μM variant 13 co-incubated with 0, 10, 25, or 50 μM inhibitor. The format is cell-based. The method, then:
as §1, §2, §3, §4, §5

The test system of test [2] is DLD1 cells. The experiment in a line: Nuclear penetration of scleroderma autoantibody SSC and effect of ivermectin, microscopic analysis. It is filed as cell-based. The text has this: In addition to SLE, cell-penetrating autoantibodies are detected in other autoimmune diseases such as scleroderma. […] SSC was expressed in and purified from HEK293T cells.
Another test relates to MCF7 breast cancer cells. The experiment in a line: Uptake of rhodamine-labeled variant 13 in live cells, light and fluorescence microscopy, MCF7. It is filed as cell-based. The conditions noted are these: 50 μM ivermectin. As for the experimental part:
Live MCF7 breast cancer cells were treated with control or rhodamine-labeled variant 13 (Rh-variant 13)+/−50 μM ivermectin and were then visualized under light and fluorescence microscopy.

Test [3] relates to cell nuclei. The conditions noted are these: known anti-dsDNA autoantibodies; cited from earlier work.
In test [4] the test system is cell nuclei. Put plainly: Nuclear penetration of humanized 3E10 variants compared with original 3E10 (D31N) di-scFv. The format is cell-based. The conditions noted are these: for Nuclear localizing?: humanized 3E10 variants; for nuclear penetration compared to the prototype: vs original 3E10 (D31N) di-scFv. The text has this:
A range of humanized 3E10 variants were generated with subtle differences in framework and CDR sequences.

Substitutions are numbered along the chain they refer to. Read-outs that look alike come from different tables or passages of the source.

For `CC(Nc1nc(N2CCCC2)nc2ccccc12)c1ccccc1` (centres unmarked) [importazole, N-(1-phenylethyl)-2-pyrrolidin-1-ylquinazolin-4-amine], in the test on DLD1 cells [1], the “effect on nuclear uptake of ANAs in SLE-19” value is “inhibit nuclear uptake of ANAs in SLE-19 in a dose-dependent manner”. Besides, the “effect on nuclear uptake of rhodamine-labeled variant 13” value in the test with DLD1 cancer cells was “inhibited nuclear uptake”. Besides, the “effect on nuclear penetration by variant 13” value (from here on “effect on nuclear penetration”) in the test on A549 lung cancer cells and with DLD1 colon cancer cells was “reduction in nuclear penetration” in each case.
`CC#C[C@]1(O)CC[C@H]2[C@@H]3CCC4=CC(=O)CCC4=C3[C@@H](c3ccc(N(C)C)cc3)C[C@@]21C` [mifepristone, 11β-(4-Dimethylamino)phenyl-170-hydroxy-17-(1-propynyl)-estra-4,9-dien-3-one]: in the test with DLD1 cells [1], the “effect on nuclear uptake of ANAs in SLE-19” value is reported as “inhibit nuclear uptake of ANAs in SLE-19 in a dose-dependent manner”. The “effect on nuclear penetration” value in the test on A549 lung cancer cells and with DLD1 colon cancer cells was “reduction in nuclear penetration” in each case.
For “22,23-dihydroavermectin B1a/B1b [ivermectin]”, the “effect on nuclear staining by ANAs in SLE sera” value in the test on DLD1 cells [1] (SLE-4, 8, 9, and 19 serum diluted 1:50, pre- and co-treatment) is recorded as “reduced the nuclear staining associated with each sample”. Also, the “effect on nuclear penetration” value in the test on A549 lung cancer cells and in the test with DLD1 colon cancer cells was “dose-dependent reduction in nuclear penetration” throughout. Moreover, in the test on DLD1 cells [2], the “effect on nuclear uptake of SSC” value is recorded as “inhibited the nuclear uptake of SSC”. In the test on MCF7 breast cancer cells, the “effect on cellular/nuclear uptake of rhodamine-labeled variant 13” value is on record as “inhibited cellular/nuclear uptake”.

B1: 5C6: monoclonal anti-DNA antibody with nucleolytic activity from MRL/lpr lupus mouse model hybridoma (antibody, listed as Mus musculus, V domains shown)
VL: DIVLTQSPASLAAVSLGERATISYRASKSVSTSGYSYMHWNQQKPGQAPRLLIYLVSNLESGVPARFSGSGSGTDFTLNIHPVEEEDAATYYCQHIRELDTFFGGGTKLEIK
VH: QLKLVESGGGLVKPGGSLKLSCAASGFTFSSYTMSWVRQTPAKRLEWVATISSGGGSTYYPDSVKGRFTISRDNARNTLYLQMSSLRSEDTAMYYCARRAYSKRGAMDYWGQGTSVTVSS
Turning to B1, the “Nuclear localizing?” value in the test on cell nuclei [3] is “Yes”.

B2: variant 10: humanized 3E10 variant, SEQ ID NOS:14, 22, and 32 (protein)
chain 1: EVQLVESGGGLVQPGGSLRLSCAASGFTFSNYGMHWVRQAPGKGLEWVSYISSSSSTIYYADSVKGRFTISRDNAKNSLYLQMNSLRAEDTAVYYCARRGLLLDYWGQGTTVTVSS
chain 2: DIQMTQSPSSLSASVGDRVTITCRASKSVSTSSYSYMHWYQQKPGKAPKLLIKYASYLESGVPSRFSGSGSGTDFTLTISSLQPEDFATYYCQHSREFPWTFGQGTKVEIK
chain 3: DIQMTQSPSSLSASVGDRVTITCRASKSVSTSSYSYMHWYQQKPGKAPKLLIKYASYLESGVPSRFSGSGSGTDFTLTISSLQPEDFATYYCQHSREFPWTFGQGTKVEIKRADAAPGGGGSGGGGSGGGGSEVQLVESGGGLVQPGGSLRLSCAASGFTFSNYGMHWVRQAPGKGLEWVSYISSSSSTIYYADSVKGRFTISRDNAKNSLYLQMNSLRAEDTAVYYCARRGLLLDYWGQGTTVTVSSASTKGPSVFPLAPLESSGSDIQMTQSPSSLSASVGDRVTITCRASKSVSTSSYSYMHWYQQKPGKAPKLLIKYASYLESGVPSRFSGSGSGTDFTLTISSLQPEDFATYYCQHSREFPWTFGQGTKVEIKRADAAPGGGGSGGGGSGGGGSEVQLVESGGGLVQPGGSLRLSCAASGFTFSNYGMHWVRQAPGKGLEWVSYISSSSSTIYYADSVKGRFTISRDNAKNSLYLQMNSLRAEDTAVYYCARRGLLLDYWGQGTTVTVSS
Consider B2, for which, in the test on cell nuclei [4], the “Nuclear localizing?” value was “Yes” and the “nuclear penetration compared to the prototype” value is listed as “penetrated nuclei very well”.

B3: variant 13: humanized 3E10 variant, SEQ ID NOS:17, 23, and 35, expressed in a CHO cell system (protein)
chain 1: B2 chain 1 with S54G
chain 2: B2 chain 2 with V15L, V19A, S28T, K46Q, A47P, F87A, Q104G
chain 3: DIQMTQSPSSLSASLGDRATITCRASKTVSTSSYSYMHWYQQKPGQPPKLLIKYASYLESGVPSRFSGSGSGTDFTLTISSLQPEDAATYYCQHSREFPWTFGGGTKVEIKRADAAPGGGGSGGGGSGGGGSEVQLVESGGGLVQPGGSLRLSCAASGFTFSNYGMHWVRQAPGKGLEWVSYISSGSSTIYYADSVKGRFTISRDNAKNSLYLQMNSLRAEDTAVYYCARRGLLLDYWGQGTTVTVSSASTKGPSVFPLAPLESSGSDIQMTQSPSSLSASLGDRATITCRASKTVSTSSYSYMHWYQQKPGQPPKLLIKYASYLESGVPSRFSGSGSGTDFTLTISSLQPEDAATYYCQHSREFPWTFGGGTKVEIKRADAAPGGGGSGGGGSGGGGSEVQLVESGGGLVQPGGSLRLSCAASGFTFSNYGMHWVRQAPGKGLEWVSYISSGSSTIYYADSVKGRFTISRDNAKNSLYLQMNSLRAEDTAVYYCARRGLLLDYWGQGTTVTVSS
With B3, in the test with cell nuclei [4], the “Nuclear localizing?” value was “Yes” and the “nuclear penetration compared to the prototype” value was “penetrated nuclei very well”.
